{"source": "patent US20120003191A1", "about": "“VALPROIC ACID, DERIVATIVES, ANALOGUES, AND COMPOSITIONS INCLUDING SAME AND METHODS FOR THEIR THERAPEUTIC USE” (priority 2009, published 2012)", "key": {"α7A integrin": {"test_system": "α7A integrin", "test": "Western blotting of α7A integrin in α7+/− myotubes", "assay_type": "cell-based, mouse", "conditions": "2 mM VPA for 72 hours", "protocol": "α7^+/− myogenic cells were cultured on 1% gelatin-coated plastic plates in Ham's F-10 growth medium (20% FBS, 0.5% chick embryo extract, 5 ng/ml bFGF, 2 mM glutamine, 100 U/ml penicillin and 100 μg/ml streptomycin). After six passages, cells were grown in DMEM containing 20% FBS, 0.5% chick embryo extract, 2 mM glutamine, 100 U/ml penicillin and 100 μg/ml streptomycin. Differentiation was induced by switching the medium to DMEM containing 2% horse serum and antibiotics when cells attained 90% confluence. After 48 hours of differentiation, 2 mM VPA was added and supplied fresh every 24 hours. Wortmannin was used at 100 nM and added fresh every 24 hours.\n(§1) Cell lysates of differentiating cells on 60 mm dishes were prepared as follows: the cells were washed twice with PBS and 200 μl Triton X-100 lysis buffer (2% Triton X-100, 20 mM Tris-Cl, pH 7.4, 150 mM NaCl, 1 mM EDTA, 1 mM EGTA, 2.5 mM NaPPi, 1 mM β-glycerophosphate, 1 mM sodium vanadate, 1:200 Protease Inhibitor Cocktail (EMD Chemicals, San Diego, Calif.) and 1 mM PMSF) were added. […] Protein concentrations were determined by the Bradford assay. […] The supernatants were collected and protein concentrations were determined spectrophotometrically at OD260 and OD280. […] ImageQuant analysis software (Molecular Dynamics, Sunnyvale, Calif.) was used to quantify band intensity."}, "Akt": {"test_system": "Akt", "test": "Western blotting of activated and total Akt in quadriceps of mdx/utrn−/− mice", "assay_type": "in vivo, mouse", "conditions": "240 mg/kg i.p. twice daily for 5 weeks", "protocol": "(§2) mdx/utrn−/− mice lack both dystrophin and utrophin, and were bred and genotyped as reported in Burkin, et al., Enhanced expression of the alpha 7 beta 1 integrin reduces muscular dystrophy and restores viability in dystrophic mice, J. Cell Biol. 152:1207-18 (2001). 240 mg/kg body weight of VPA was injected intraperitoneally twice daily into mdx/utrn^−/− mice (n=9) starting at 3 weeks of age, for a period of 5 weeks. Control mice were injected with saline (n=9). Body-weights were determined daily.\nas §1, with “added. The cells were scraped and transferred into Eppendorf tubes, the cell suspensions were triturated and centrifuged at 8000×g at 4° C. for 10 minutes, and the supernatants were collected.” for “added.”"}, "α7 integrin": {"test_system": "α7 integrin", "test": "Western blotting of α7 integrin in muscle extracts of mdx/utrn−/− mice", "assay_type": "in vivo, mouse", "conditions": "240 mg/kg i.p. twice daily for 5 weeks", "protocol": "as §2\nas §1, with “added. The cells were scraped and transferred into Eppendorf tubes, the cell suspensions were triturated and centrifuged at 8000×g at 4° C. for 10 minutes, and the supernatants were collected.” for “added.”"}}, "data": [{"smiles": "CCCC(CCC)C(=O)O", "note": "[VPA, valproic acid]", "values": [{"measurement": "α7A integrin isoform increase", "setting": "α7A integrin", "result": 2, "unit": "fold"}, {"measurement": "levels of activated Akt in muscle", "setting": "Akt", "result": "Significantly higher levels"}, {"measurement": "α7 integrin in muscle extracts, saline versus VPA injected mice", "setting": "α7 integrin", "result": "did not show changes"}]}]}
